Results taken from patent US10934277B2, “Enantiomerically purified GPER agonist for use in treating disease states and conditions” (Linnaeus Therapeutics, Inc., priority 2018, dated 2021).
Values after ≈ are worked out from the molar mass of the structure shown. Values joined by “and” are separate entries in the source; they are usually repeats but may differ in a detail not shown here. Equal values may be shown once.

Assays:
OATP1B1 = biological target: T1, OATP1B1 (Homo sapiens, UniProt Q9Y6L6); assay: Drug transporter fluorometric inhibition, OATP1B1; assay type: in vitro ADME
T1 sequence (Q9Y6L6 1-691): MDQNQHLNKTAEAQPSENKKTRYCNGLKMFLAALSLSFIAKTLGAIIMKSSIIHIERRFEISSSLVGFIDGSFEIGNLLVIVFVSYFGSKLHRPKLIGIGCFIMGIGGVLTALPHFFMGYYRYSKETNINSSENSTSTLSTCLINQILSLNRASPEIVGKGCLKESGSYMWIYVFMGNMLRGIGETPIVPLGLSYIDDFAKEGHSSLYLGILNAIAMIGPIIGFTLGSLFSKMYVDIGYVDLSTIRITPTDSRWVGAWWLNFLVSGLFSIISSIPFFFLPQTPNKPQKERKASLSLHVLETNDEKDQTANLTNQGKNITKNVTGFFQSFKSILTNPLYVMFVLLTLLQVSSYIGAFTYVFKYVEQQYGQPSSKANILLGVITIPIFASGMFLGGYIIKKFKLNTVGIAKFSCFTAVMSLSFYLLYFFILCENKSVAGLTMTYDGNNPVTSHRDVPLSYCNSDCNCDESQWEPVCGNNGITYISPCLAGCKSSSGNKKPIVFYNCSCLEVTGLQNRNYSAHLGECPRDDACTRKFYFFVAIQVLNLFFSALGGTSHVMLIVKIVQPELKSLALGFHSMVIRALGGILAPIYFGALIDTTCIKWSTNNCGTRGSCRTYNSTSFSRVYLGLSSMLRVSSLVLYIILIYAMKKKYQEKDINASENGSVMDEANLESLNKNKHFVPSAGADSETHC
Description: (§1) Drug transporter (fluorometric inhibition)
(§2) The percent of control was calculated using the following equation. The percent of inhibition was calculated by subtracting the percent of control from 100. The IC50 value (concentration causing a half-maximal inhibition of the control value) was determined by non-linear regression analysis of the concentration-response curve using the Hill equation.
(§3) Compound is the individual reading in the presence of the test compound. T1 is the mean reading in the absence of the test compound. Background (for P-gp and BCRP) is the mean reading in the presence of the highest effective concentration of the reference inhibitor. Background (for OATP1B1, OATP1B3, OAT1, OAT3, and OCT2) is the mean reading in the absence of both the test compound and the substrate.

CYP1A2 = assay: Cytochrome P450 induction in hepatocytes, CYP1A2; assay type: in vitro ADME; settings: hepatocytes from three different human cell lines; 1 μM, 10 μM and 100 μM
[1] = Kinetic solubility measurement in bio-relevant media; assay type: physicochemical; settings: FeSSIF
YUMM1.7 melanoma cells = assay: YUMM1.7 proliferation assay (4 day growth); assay type: cell-based; settings: 500 nM; for doubling compared with that seen with the vehicle / Doublings: 4 days; for Doublings / cell count after 4 days of growth (single replicates) / average cell count after 4 days of growth: starting cell number 15,000; for cell count after 4 days of growth (single replicates): 5 replicates; for average cell count after 4 days of growth: average of 5 replicates
Description: YUMM1.7 cells were cultured for at least 1 passage after thawing and were cultured in DMEM with 5% FBS (Invitrogen) and 1% antibiotic-antimycotic (gibco) at 37C 5% CO2. Proliferation assays were performed by plating 15,000 cells in 12-well plates with 5 replicates per condition tested. Media and drugs were refreshed on Day 2. On Day 4, cells were trypsinized using 0.25 ml 0.05% Trypsin with EDTA (Invitrogen) for 5 minutes to detach from the plate, mixed with 0.75 ml of culture media, and counted using a hemocytometer.
Starting cell numbers were 15,000.

OPRD1 = OPRD1 (Homo sapiens, UniProt P41143); assay: Off target selectivity assay, OPRD1; assay type: cell-based; settings: dose response, concentrations up to 10 μM; read-out: IC50 or EC50 on OPRD1
Description: (§4) Final assay vehicle concentration was 1%.
(§5) For Gi coupled GPCRs, EC80 forskolin was included.
(§6) DMSO concentration for all readouts is ≤0.2%.
(§7) Probenicid was prepared fresh. Cells were loaded with dye prior to testing.

HTR2B = HTR2B (Homo sapiens, UniProt P41595); assay: Off target selectivity assay, HTR2B; assay type: cell-based; settings: dose response, concentrations up to 10 μM; read-out: IC50 or EC50 on HTR2B
Description: as §4, §5, §6, §7

HTR1A = biological target: T2, HTR1A (Homo sapiens, UniProt P08908); assay: Off target selectivity assay, HTR1A; assay type: cell-based; settings: dose response, concentrations up to 10 μM; read-out: IC50 or EC50 on HTR1A
T2 sequence (P08908 1-422): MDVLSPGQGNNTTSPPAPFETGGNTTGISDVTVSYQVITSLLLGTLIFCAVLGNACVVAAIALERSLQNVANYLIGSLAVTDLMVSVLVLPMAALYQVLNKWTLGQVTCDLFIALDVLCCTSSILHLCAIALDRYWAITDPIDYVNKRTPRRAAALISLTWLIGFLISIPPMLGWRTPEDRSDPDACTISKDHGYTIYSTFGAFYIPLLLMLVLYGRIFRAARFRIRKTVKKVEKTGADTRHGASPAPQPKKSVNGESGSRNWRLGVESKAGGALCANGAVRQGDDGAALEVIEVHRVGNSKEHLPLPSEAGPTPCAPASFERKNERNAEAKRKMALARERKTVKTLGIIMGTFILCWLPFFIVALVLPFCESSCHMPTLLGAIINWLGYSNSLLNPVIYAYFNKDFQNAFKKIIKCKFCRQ
Description: as §4, §5, §6, §7

OCT2 = biological target: T3, OCT2 (Homo sapiens, UniProt O15244); assay: Drug transporter fluorometric inhibition, OCT2; assay type: in vitro ADME
T3 sequence (O15244 1-555): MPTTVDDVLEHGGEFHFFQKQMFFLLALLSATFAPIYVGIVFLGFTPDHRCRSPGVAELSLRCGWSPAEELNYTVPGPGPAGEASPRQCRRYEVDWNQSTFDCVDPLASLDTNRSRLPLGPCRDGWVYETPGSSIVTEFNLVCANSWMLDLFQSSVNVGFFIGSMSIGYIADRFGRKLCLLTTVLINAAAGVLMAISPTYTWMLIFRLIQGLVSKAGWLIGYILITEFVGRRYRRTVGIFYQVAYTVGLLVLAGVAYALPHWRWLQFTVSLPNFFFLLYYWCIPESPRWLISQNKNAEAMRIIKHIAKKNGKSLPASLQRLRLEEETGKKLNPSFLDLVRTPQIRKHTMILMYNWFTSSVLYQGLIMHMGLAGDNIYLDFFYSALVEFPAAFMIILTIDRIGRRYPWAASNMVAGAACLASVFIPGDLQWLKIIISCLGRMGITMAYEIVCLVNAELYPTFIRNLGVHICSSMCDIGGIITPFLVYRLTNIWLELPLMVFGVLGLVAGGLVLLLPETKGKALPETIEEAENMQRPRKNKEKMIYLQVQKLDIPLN
Description: as §1, §2, §3

OPRD1, sequence (P41143 whole entry): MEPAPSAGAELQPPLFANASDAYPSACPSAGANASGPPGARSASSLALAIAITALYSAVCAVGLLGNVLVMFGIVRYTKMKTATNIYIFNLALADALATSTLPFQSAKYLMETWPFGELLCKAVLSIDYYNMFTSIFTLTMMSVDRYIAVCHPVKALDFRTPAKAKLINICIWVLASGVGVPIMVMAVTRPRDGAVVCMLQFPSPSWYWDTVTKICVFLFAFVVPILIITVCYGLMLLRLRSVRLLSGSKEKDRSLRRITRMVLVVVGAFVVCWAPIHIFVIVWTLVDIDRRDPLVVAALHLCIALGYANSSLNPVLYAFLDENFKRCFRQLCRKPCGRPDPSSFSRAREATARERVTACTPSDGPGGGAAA
HTR2B, sequence (P41595 whole entry): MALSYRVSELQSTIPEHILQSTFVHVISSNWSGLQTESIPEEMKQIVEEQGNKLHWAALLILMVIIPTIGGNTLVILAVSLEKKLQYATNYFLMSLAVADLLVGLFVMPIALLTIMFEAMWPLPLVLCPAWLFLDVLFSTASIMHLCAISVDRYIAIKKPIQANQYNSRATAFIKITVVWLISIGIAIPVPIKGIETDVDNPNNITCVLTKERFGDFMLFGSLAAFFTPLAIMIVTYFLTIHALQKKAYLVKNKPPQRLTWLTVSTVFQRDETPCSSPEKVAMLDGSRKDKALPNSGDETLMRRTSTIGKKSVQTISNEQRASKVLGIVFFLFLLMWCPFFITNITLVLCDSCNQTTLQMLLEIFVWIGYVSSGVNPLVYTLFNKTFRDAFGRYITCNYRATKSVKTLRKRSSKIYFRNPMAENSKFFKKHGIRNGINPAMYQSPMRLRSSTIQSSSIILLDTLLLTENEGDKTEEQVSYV

inhibition at 10 µM (OATP1B1) [%] | form change in the three bio-relevant media ([1]; SGF, FaSSIF, after 1, 2, 4 and 24 hrs) | solubility ([1]; pH 5, thermodynamic from solid, 37° C., read-out: highest solubility, observed in FeSSIF) [µg/mL] | IC50 (OPRD1) [nM] | IC50 (HTR2B) [nM] | IC50 (HTR1A) [nM] | inhibition at 10 µM (OCT2) [%] | Compound | CYP1A2 induction (CYP1A2) | doubling compared with that seen with the vehicle (YUMM1.7 melanoma cells) | Doublings (YUMM1.7 melanoma cells) | cell count after 4 days of growth (single replicates) (YUMM1.7 melanoma cells) | average cell count after 4 days of growth (YUMM1.7 melanoma cells)
82.5 | No form change was observed | ~37 (≈ 89.7 µM) | 870 | 8200 |  |  | CC(=O)c1ccc2c(c1)[C@@H]1C=CC[C@@H]1[C@H](c1cc3c(cc1Br)OCO3)N2 (single isomer, unassigned) [SRR G-1] | induced at both 1 μM and 10 μM in only 1 of the 3 cell lines | less than 1/10 | 0.6 | 2 tens of thousands (3×) and 3 tens of thousands (2×) | 2.4 tens of thousands
91.2 |  |  |  |  | 2100 | 53.2 | CC(=O)c1ccc2c(c1)[C@H]1C=CC[C@H]1[C@@H](c1cc3c(cc1Br)OCO3)N2 [RSS G-1, 1-((3aR,4S,9bS)-4-(6-bromobenzo[d][1,3]dioxol-5-yl)-3a,4,5,9b-tetrahydro-3H-cyclopenta[c]quinolin-8-yl)ethan-1-one] | induced at both 10 μM and 100 μM in 2 of the 3 cell lines | approximately the same number of doublings as the vehicle | 7.9 | 83 tens of thousands and 94 tens of thousands and 79 tens of thousands and 111 tens of thousands and 107 tens of thousands | 94.8 tens of thousands
